The subject of data set [1] is Ba/F3 EGFR-D770-N771ins_SVD xenograft. The data set can be described thus: In vivo pharmacodynamic study in mouse pro-B cell Ba/F3 EGFR-D770-N771ins_SVD xenograft model. The settings on record: 40 mg/kg, oral, 1 time/day, 14 days; for Tumor volume (mm3, Mean ± SD) Day 14: BALB/cA nude mice. How it is done: In Vivo Pharmacodynamic Study of the Compound of the Present Invention in the Mouse Pro-B Cell Ba/F3 EGFR-D770-N771ins_SVD Xenograft Model
The in vivo efficacy of the compound in the mouse pro-B cell Ba/F3 EGFR-D770-N771ins_SVD xenograft model was evaluated.
BALB/cA nude mice (6-8 weeks old, female) were purchased from Shanghai Sino-British SIPPR/BK Lab Animal Co., Ltd.
a. […] The resuscitated cells were placed in the cell culture flasks (cell type, date, the name of the culturing person and the like were marked on the flask wall), and incubated in a CO2 incubator (the incubator temperature was 37° C., and the CO2 concentration was 5%).
b. The cells were passaged every three days. After passage, the cells were further incubated in the CO2 incubator. The process was repeated until the number of cells met the requirements of the in vivo pharmacodynamic study.
c. The cultured cells were collected and counted by the automatic cell counter. According to the counting results, the cells were resuspended in PBS to prepare a cell suspension (density: 2×10^7 cells/mL), which was placed in an ice box for later use.
d. The test nude mice were inoculated in turn (0.1 mL of cell suspension per mouse).
a. Tumor was measured on Day 8 to Day 14 after inoculation depending on the tumor growth, and tumor size was calculated.
Tumor volume calculation: tumor volume (mm^3)=length (mm)×width (mm)×width (mm)/2
b. According to the body weight and tumor size of the tumor-bearing mouse, the mice were randomly grouped (5 mice per group).
d. The tumor was measured and the mouse was weighed twice a week after the test drug was administrated.
Calculation of the Tumor Growth Inhibition Rate TGI (%) of the Compound: […]

A further data set has as its system A431 cell line. Nature of the data set: Proliferation of A431 cell line (CellTiter-Glo). The settings on record: Homo sapiens, A-431, 72 h. It counts as cell-based. A general note: ATP-based viability assays read luminescence as a measure of living cells.
Another data set concerns the target EGFR D770_N771insNPG (Homo sapiens, UniProt P00533, INS770NPG). The data set can be described thus: TR-FRET inhibition of kinase activity of EGFR exon 20 insertion mutation. It counts as biochemical. A general note: In TR-FRET formats the signal depends on donor and acceptor labels being close together.
For data set [2], the target named is Ba/F3 EGFR-D770-N771ins_SVD (Homo sapiens, UniProt P00533, DUP768-770, cells depend on it). Nature of the data set: Proliferation of Ba/F3 EGFR mutant cell line (CellTiter-Glo). The data set is classed as cell-based, mouse. Particulars: 72 h to 144 h, read-out: Ba/F3 EGFR-D770-N771ins_SVD IC50.
Sequence of Ba/F3 EGFR-D770-N771ins_SVD (P00533 with tags, fused parts or gaps DUP768-770): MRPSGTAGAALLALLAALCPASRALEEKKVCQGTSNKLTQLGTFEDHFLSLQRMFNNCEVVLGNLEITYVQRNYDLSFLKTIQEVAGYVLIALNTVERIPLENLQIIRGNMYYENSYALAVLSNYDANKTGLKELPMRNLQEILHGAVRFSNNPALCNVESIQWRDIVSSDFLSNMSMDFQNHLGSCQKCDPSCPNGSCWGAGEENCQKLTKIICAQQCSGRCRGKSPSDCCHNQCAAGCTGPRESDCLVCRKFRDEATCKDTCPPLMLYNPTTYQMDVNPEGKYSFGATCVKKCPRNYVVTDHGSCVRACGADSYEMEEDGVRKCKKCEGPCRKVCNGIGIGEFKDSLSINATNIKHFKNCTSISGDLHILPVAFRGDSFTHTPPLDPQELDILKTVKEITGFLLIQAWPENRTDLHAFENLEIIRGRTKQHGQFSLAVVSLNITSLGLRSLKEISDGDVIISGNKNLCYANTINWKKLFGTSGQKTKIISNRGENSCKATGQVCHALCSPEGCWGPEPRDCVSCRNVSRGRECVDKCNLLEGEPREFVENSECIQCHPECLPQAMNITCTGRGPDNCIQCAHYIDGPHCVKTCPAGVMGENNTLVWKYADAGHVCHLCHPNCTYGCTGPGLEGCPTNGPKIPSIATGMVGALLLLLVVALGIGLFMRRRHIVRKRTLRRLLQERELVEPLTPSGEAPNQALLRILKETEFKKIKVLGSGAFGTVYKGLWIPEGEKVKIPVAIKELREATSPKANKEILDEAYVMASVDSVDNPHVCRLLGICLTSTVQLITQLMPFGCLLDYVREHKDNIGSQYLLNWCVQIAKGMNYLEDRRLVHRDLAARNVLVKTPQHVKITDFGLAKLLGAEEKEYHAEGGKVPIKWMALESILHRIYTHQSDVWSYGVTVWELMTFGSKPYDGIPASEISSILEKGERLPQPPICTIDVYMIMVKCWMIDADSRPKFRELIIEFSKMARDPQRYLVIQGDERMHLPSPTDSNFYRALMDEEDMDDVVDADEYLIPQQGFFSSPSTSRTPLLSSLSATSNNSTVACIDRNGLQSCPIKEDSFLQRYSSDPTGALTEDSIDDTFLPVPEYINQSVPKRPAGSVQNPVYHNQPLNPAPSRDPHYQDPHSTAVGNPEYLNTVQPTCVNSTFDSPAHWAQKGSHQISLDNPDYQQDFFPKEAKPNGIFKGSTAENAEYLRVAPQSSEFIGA
For a further data set, the target named is EGFR WT (Homo sapiens, UniProt P00533). Nature of the data set: TR-FRET inhibition of kinase activity of wild type EGFR. It counts as biochemical. From the text: Determination of the Inhibitory Effect of the Compound of the Present Invention on the Kinase Activity of Wild Type EGFR
Sequence of EGFR WT (P00533 25-1210): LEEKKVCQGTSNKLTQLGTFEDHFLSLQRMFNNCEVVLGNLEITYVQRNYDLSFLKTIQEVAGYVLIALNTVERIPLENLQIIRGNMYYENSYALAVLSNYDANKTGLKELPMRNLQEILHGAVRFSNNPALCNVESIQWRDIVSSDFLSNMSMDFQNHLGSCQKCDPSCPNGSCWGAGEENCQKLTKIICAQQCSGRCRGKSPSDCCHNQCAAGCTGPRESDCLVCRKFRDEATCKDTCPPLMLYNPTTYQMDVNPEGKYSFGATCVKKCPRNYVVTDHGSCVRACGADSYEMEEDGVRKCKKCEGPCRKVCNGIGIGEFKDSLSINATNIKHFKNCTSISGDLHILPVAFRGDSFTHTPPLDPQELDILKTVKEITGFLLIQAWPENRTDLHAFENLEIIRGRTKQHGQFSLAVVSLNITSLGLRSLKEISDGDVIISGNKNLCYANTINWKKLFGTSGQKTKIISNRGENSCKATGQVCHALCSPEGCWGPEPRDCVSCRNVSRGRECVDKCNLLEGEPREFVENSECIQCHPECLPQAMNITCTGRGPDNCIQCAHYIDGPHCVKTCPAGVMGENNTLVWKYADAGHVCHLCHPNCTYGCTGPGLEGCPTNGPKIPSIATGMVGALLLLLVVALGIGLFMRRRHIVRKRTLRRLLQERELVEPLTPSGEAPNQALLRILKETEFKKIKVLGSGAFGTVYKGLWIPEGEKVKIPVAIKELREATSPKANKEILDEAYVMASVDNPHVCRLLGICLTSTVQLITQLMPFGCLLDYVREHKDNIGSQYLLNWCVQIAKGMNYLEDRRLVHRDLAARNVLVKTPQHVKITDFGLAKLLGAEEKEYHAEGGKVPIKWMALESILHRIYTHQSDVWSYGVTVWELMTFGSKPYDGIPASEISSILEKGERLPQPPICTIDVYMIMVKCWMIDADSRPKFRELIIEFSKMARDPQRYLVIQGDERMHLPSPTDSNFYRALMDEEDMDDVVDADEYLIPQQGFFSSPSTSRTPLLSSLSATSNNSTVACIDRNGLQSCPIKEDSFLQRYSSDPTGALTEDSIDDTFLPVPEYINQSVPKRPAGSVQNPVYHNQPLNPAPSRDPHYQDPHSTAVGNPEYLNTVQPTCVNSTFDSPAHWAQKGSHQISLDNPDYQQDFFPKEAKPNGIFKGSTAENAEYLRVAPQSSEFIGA
Experimental objective: The objective of this test example is to determine the inhibitory effect of the compound on the kinase activity of wild type EGFR.
Experimental process: The experiment applied the TR-FRET (time-resolved fluorescence resonance energy transfer) method to study the inhibitory effect of the compound on the kinase activity of wild type EGFR. The experiment was carried out in a 384-well plate. Experimental buffer (50 mM HEPES, 1 mM EGTA, 10 mM MgCl2, 2 mM DTT, 0.01% Tween-20) was formulated. The compound was diluted in gradient to different concentrations with the experimental buffer. 2 μL of the solution was added to each well of the 384-well plate. 4 μL of diluted EGFR kinase solution (0.001-0.5 nM) was added, and the plate was incubated at room temperature for 10 minutes. 4 μL of ULight-poly GT/ATP mixed solution was added, and the plate was incubated at room temperature for 30 to 60 minutes. 5 μL of EDTA stop solution and 5 μL of Eu-labeled antibody detection solution were added, and the plate was incubated at room temperature for 1 hour.
Experimental Data Processing Method:
The concentration and inhibition rate were fitted to a nonlinear regression curve by Graphpad Prism software to obtain the IC50 value.

Data set [3] in a line: Plasma stability test, rat plasma. The data set is classed as in vitro ADME. Particulars: 37° C. As to the method: (§1) Test Example 5. Plasma Stability Test
(§2) The objective of this experiment is to determine the stability of the compounds of the examples in the plasma of mouse, rat and human.
(§3) 1. Plasma preparation: Animal or human whole blood was collected, placed into a test tube containing anticoagulant, and centrifuged at 3500 rpm for 10 min. The light yellow plasma in the upper layer was collected.
(§4) 2. 1 mM test compound (m/M/V=C), the compound was weighed and formulated into stock solution with DMSO.
(§5) 1. 398 μL of plasma and 2 μL of 1 mM compound (test compound) were added successively to a 96-well plate, and incubated at 37° C.
(§6) 2. 50 μL of solution was taken out at 0, 15, 30, 60, 120 min, to which 400 μL of methanol stop solution containing internal standard was added.
(§7) 3. The solution was centrifuged (3220 g, 30 min). 50 μL of supernatant was taken out, to which 50 μL of DDH2O was added to dilute. The resulting solution was injected into a LC-MS/MS.

Data set [4] in a line: Plasma stability test, mouse plasma. It counts as in vitro ADME. The settings on record: 37° C. How it is done: as §1, §2, §3, §4, §5, §6, §7
A short description of data set [5]: Plasma stability test, human plasma. The data set is classed as in vitro ADME. The settings on record: 37° C. As to the method:
as §1, §2, §3, §4, §5, §6, §7

Sequence of EGFR D770_N771insNPG (P00533 with tags, fused parts or gaps INS770NPG limits assumed): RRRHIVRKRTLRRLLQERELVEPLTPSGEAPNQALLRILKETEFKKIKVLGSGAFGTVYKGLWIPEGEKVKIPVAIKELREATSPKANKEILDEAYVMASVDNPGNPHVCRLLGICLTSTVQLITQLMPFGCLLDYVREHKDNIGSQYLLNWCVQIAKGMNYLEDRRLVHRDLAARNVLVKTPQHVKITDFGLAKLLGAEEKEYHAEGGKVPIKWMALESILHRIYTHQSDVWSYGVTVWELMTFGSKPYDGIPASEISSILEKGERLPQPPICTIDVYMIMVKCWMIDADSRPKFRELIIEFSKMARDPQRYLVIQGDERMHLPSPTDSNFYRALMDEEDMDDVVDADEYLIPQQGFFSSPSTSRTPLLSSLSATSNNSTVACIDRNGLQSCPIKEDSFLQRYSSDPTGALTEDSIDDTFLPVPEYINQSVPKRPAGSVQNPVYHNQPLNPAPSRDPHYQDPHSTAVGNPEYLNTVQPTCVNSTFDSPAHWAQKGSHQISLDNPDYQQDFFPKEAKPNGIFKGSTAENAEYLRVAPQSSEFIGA

In the case of `C=CC(=O)Nc1cc(Nc2nccc(-c3cn(C)c4ccccc34)n2)c(OC)cc1N(C)CCN(C)C` [ADZ9291], in data set [1], the “T/C (%) Day 14” value came out at 48.40%; the “TGI (%) Day 14” value came out at 51.60%; the “Tumor volume (mm3, Mean ± SD) Day 14” value was found to be 935 ± 176 mm3.
A word on the IC50: it is the concentration needed to halve the response being measured. Turning to `C=CC(=O)Nc1cc(Nc2ncc(-c3ncco3)c(-c3cn(C)c4ccccc34)n2)c(OC)cc1N(C)CCN(C)C` [Example 81, N-(2-((2-(Dimethylamino)ethyl)(methyl)amino)-4-methoxy-5-((4-(1-methyl-1H-indol-3-yl)-5-(oxazol-2-yl)pyrimidin-2-yl)amino)phenyl)acrylamide], in data set [1], the “T/C (%) Day 14” value worked out at 17.23%; the “TGI (%) Day 14” value is reported as 82.77%; the “Tumor volume (mm3, Mean ± SD) Day 14” value is recorded as 334 ± 121 mm3. Further, the IC50 with A431 cell line worked out at 66.8 nM. For the same compound, the concentration for half-maximal inhibition (IC50) against EGFR D770_N771insNPG came out at 0.47 nM. Moreover, the GI50 in data set [2] stood at 22.9 nM.
As for `C=CC(=O)Nc1cc(Nc2ncc(C(=O)NC3CC3)c(-c3cn(C)c4ccccc34)n2)c(OC)cc1N1C[C@H]2CN(C)C[C@H]2C1` [Example 32, 2-((5-Acrylamido-2-methoxy-4-((3aR,6aS)-5-methylhexahydropyrrolo[3,4-c]pyrrol-2(1H)-yl)phenyl)amino)-N-cyclopropyl-4-(1-methyl-1H-indol-3-yl)pyrimidine-5-carboxamide], the IC50 against EGFR WT is 82.9 nM.
The half-life is how long it takes for the measured level to halve. Read a high half-life as slow decline. `C=CC(=O)Nc1cc(Nc2ncc(C#N)c(-c3cn(C4CC4)c4ccccc34)n2)c(OC)cc1N(C)CCN(C)C` [Example 67, N-(5-((5-Cyano-4-(1-cyclopropyl-1H-indol-3-yl)pyrimidin-2-yl)amino)-2-((2-(dimethylamino)ethyl)(methyl)amino)-4-methoxyphenyl)acrylamide]: in data set [1], the “T/C (%) Day 14” value worked out at 10.94%. Also, the “TGI (%) Day 14” value in data set [1] turned out to be 89.06%. Also, in data set [1], the “Tumor volume (mm3, Mean ± SD) Day 14” value came to 212 ± 44 mm3. The half-life at 5 µM turned out to be 1.23 h in data set [3], 0.665 h in data set [4] and 1.38 h in data set [5]. Also, the “Residual rate (%) 0 min” value in data set [3] (0 min), in data set [4] (0 min) and in data set [5] (0 min) was 100.00% throughout. The “Residual rate (%) 15 min” value in data set [3] (15 min) was determined as 90.61%; in data set [4] (15 min) it was 88.69%; in data set [5] (15 min) it was 93.86%. The results for the “Residual rate (%) 30 min” value in data set [3] (30 min), in data set [4] (30 min) and in data set [5] (30 min) were 81.14%, 69.92% and 85.71%, respectively. Moreover, the “Residual rate (%) 60 min” value came out at 59.66% in data set [3] (60 min), 36.29% in data set [4] (60 min) and 67.74% in data set [5] (60 min). The “Residual rate (%) 120 min” value was 33.25% in data set [3] (120 min), 9.06% in data set [4] (120 min) and 37.38% in data set [5] (120 min). Besides, the IC50 in the data set with A431 cell line amounted to 94.5 nM; against EGFR D770_N771insNPG, 0.14 nM. In data set [2], the GI50 turned out to be 10.4 nM.
With `C=CC(=O)Nc1cc(Nc2ncc(-c3ncco3)c(-c3cn(C4CC4)c4ccccc34)n2)c(OC)cc1N(C)CCN(C)C` [Example 37, N-(5-((4-(1-Cyclopropyl-1H-indol-3-yl)-5-(oxazol-2-yl)pyrimidin-2-yl)amino)-2-((2-(dimethylamino)ethyl)(methyl)amino)-4-methoxyphenyl)acrylamide], in data set [1], the “T/C (%) Day 14” value worked out at 25.75%; the “TGI (%) Day 14” value is 74.25%; the “Tumor volume (mm3, Mean ± SD) Day 14” value is 499 ± 151 mm3. The IC50 in the data set on A431 cell line amounted to 66 nM. In addition, on EGFR D770_N771insNPG, the IC50 was 0.56 nM. For the same compound, the GI50 in data set [2] came to 16.6 nM.
`C=CC(=O)Nc1cc(Nc2ncc(N=S(C)(C)=O)c(-c3cn(C)c4ccccc34)n2)c(OC)cc1N(C)CCN(C)C` [Example 136, N-(5-((5-((Dimethyl(oxo)-λ^6-sulfaneylidene)amino)-4-(1-methyl-1H-indol-3-yl)pyrimidin-2-yl)amino)-2-((2-(dimethylamino)ethyl)(methyl)amino)-4-methoxyphenyl)acrylamide] came in with an IC50 against EGFR WT of 250 nM.

For the origin of these results see patent publication US20220340547A1, “INDOLE DERIVATIVE-CONTAINING INHIBITOR, PREPARATION METHOD THEREFOR AND APPLICATION THEREOF” (Shanghi Hansoh Biosoh Biomedical Co., Ltd., priority 2019, published 2022).
